Data taken from patent publication US7294637B2 (Sepracor, Inc., priority 2000, dated 2007).
pIC50: −log10 of the molar value. Read-outs that look alike come from different tables or passages of the source.

Tests used:
[1] = biological target: norepinephrine transporter (Homo sapiens, UniProt P23975); experiment: NE uptake: displacement of norephinephrine ligands in vitro (methods of Galli et al.); assay type: binding; conditions: for IC50: NE Uptake, Uptake Profile (IC50, nM); for pIC50: read-out: NE Uptake, Uptake Profile (IC50)
Sequence of norepinephrine transporter (P23975 whole entry): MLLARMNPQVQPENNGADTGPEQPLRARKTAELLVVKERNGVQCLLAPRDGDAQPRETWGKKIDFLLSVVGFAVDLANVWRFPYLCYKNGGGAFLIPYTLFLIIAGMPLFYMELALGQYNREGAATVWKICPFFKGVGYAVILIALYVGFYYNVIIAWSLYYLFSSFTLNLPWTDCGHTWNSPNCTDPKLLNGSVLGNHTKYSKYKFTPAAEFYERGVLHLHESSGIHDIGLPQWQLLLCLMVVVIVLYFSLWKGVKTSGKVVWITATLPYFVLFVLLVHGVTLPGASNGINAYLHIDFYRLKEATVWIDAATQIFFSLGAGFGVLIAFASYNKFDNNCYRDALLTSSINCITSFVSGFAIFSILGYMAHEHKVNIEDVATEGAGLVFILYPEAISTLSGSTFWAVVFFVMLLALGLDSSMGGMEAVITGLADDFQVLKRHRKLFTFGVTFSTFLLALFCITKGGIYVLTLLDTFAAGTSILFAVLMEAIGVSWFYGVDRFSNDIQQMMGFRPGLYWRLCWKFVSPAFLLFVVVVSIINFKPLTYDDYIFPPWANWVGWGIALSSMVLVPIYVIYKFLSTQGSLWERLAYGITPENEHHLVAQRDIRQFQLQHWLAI

dopamine transporter = dopamine transporter (Homo sapiens, UniProt Q01959); experiment: DA uptake: displacement of dopamine ligands in vitro (methods of Gu et al.); conditions: displacement of dopamine ligands in vitro; for IC50: DA Uptake, Uptake Profile (IC50, nM); for pIC50: read-out: DA Uptake, Uptake Profile (IC50)
Sequence of dopamine transporter (Q01959 whole entry): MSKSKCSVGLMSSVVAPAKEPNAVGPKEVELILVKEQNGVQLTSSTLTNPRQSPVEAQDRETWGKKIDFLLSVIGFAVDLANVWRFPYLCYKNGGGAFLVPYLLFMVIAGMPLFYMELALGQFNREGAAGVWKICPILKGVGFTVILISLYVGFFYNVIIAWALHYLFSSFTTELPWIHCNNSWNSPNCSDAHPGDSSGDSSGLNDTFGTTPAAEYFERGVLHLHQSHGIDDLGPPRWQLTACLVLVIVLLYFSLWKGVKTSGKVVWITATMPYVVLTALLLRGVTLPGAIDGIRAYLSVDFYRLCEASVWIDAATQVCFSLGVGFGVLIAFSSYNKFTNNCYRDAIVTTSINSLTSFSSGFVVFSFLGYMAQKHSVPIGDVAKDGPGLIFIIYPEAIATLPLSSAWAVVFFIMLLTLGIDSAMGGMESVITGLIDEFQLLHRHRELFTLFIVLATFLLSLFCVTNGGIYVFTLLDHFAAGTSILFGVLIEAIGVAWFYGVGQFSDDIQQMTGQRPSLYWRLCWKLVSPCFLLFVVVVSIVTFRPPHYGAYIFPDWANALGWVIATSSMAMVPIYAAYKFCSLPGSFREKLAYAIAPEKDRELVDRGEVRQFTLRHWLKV

serotonin transporter = serotonin transporter (Homo sapiens, UniProt P31645); experiment: 5-HT uptake: displacement of serotonin ligands in vitro (methods of Gu et al.); assay type: binding; conditions: displacement of serotonin ligands in vitro; read-out: 5-HT Uptake, Uptake Profile (IC50)
Sequence of serotonin transporter (P31645 whole entry): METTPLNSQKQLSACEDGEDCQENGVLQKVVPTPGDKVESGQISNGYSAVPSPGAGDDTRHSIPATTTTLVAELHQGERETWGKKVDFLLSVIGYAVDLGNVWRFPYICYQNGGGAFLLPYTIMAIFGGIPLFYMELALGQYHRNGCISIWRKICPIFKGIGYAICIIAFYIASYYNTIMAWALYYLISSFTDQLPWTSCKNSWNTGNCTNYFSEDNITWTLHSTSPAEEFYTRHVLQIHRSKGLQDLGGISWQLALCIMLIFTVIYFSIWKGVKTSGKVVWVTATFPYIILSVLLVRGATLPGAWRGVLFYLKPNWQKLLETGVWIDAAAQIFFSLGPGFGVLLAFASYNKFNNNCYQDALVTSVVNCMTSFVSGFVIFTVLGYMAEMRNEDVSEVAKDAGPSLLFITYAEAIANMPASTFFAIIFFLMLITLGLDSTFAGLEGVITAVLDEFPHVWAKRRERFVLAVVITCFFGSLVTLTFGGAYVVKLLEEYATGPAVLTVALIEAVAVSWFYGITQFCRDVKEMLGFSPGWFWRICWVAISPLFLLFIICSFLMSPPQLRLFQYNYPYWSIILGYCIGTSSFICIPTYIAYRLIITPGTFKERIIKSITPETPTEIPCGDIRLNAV

Row | SMILES | IC50 [1] [nM] | IC50 (dopamine transporter) [nM] | pIC50 (serotonin transporter) | pIC50 [1] | pIC50 (dopamine transporter)
1 | FC(F)(F)c1ccc(OC2CCCN(CC3(c4ccc(Cl)cc4)CCC3)C2)cc1 (centres unmarked) [compound 158] | > 1000 | < 1000 | < 6.00 | – | –
2 | FC(F)(F)c1cc(COC2CCCN(CC3(c4ccc(Cl)cc4)CCC3)C2)cc(C(F)(F)F)c1 (centres unmarked) [compound 189, 3-(3,5-Bis-trifluoromethyl-benzyloxy)-1-[1-(4-chloro-phenyl)-cyclobutylmethyl]-piperidine] | – | > 1000 | < 6.00 | < 6.00 | –
3 | OC(CN1CCCC(COc2ccc(C(F)(F)F)cc2)C1)C1(c2ccccc2OC(F)(F)F)CCC1 (single isomer, unassigned) [compound 228, 1-[1-(2-Trifluoromethoxy-phenyl)-cyclobutyl]-2-[3-(4-trifluoromethyl-phenoxymethyl)-piperidin-1-yl]-ethanol] | – | > 1000 | < 6.00 | < 6.00 | –
4 | COc1ccccc1C1(C(O)CN2CCCC(COc3ccc4c(c3)OCO4)C2)CCC1 (centres unmarked) [compound 232, 2-[3-(Benzo[1,3]dioxol-5-yloxymethyl)-piperidin-1-yl]-1-[1-(2-methoxy-phenyl)-cyclobutyl]-ethanol] | < 1000 | < 1000 | > 6.00 | – | –
5 | OC(CN1CCCC(COc2ccc(C(F)(F)F)cc2)C1)C1(c2ccc3c(c2)OCO3)CCC1 (centres unmarked) [compound 165] | < 100 | < 10 | > 7.00 | – | –
6 | FC(F)(F)c1ccc(OCC2CCCN(CC3COc4ccccc4O3)C2)cc1 (single isomer, unassigned) [compound 179, 1-(2,3-Dihydro-benzo[1,4]dioxin-2-ylmethyl)-3-(4-trifluoromethyl-phenoxymethyl)-piperidine] | < 1000 | > 1000 | > 6.00 | – | –
7 | CC(C)(CN1CCC[C@@H](COc2ccc(C(F)(F)F)cc2)C1)c1ccc(Cl)cc1 [compound 122] | – | – | < 6.00 | < 6.00 | > 6.00
8 | OC(CN1CCCC(COc2ccc(C(F)(F)F)cc2)C1)C1(c2ccccc2OC(F)(F)F)CCC1 (single isomer, unassigned) [compound 227, 1-[1-(2-Trifluoromethoxy-phenyl)-cyclobutyl]-2-[3-(4-trifluoromethyl-phenoxymethyl)-piperidin-1-yl]-ethanol] | > 1000 | < 1000 | > 6.00 | – | –
9 | CC(O)(CN1CCCC(COc2ccccc2)C1)c1ccc(Cl)cc1 (centres unmarked) [compound 79, 2-(4-Chloro-phenyl)-1-(3-phenoxymethyl-piperidin-1-yl)-propan-2-ol] | < 1000 | < 1000 | > 7.00 | – | –
10 | FC(F)(F)c1ccc(OCC2CCCN(CC3COc4ccccc4O3)C2)cc1 (single isomer, unassigned) [compound 177, 1-(2,3-Dihydro-benzo[1,4]dioxin-2-ylmethyl)-3-(4-trifluoromethyl-phenoxymethyl)-piperidine] | > 1000 | > 1000 | > 6.00 | – | –
11 | OC(CN1CCCC(CCc2ccccc2)C1)c1ccc(Cl)cc1 (single isomer, unassigned) [compound 141, 1-(4-Chloro-phenyl)-2-(3-phenethyl-piperidin-1-yl)-ethanol] | < 1000 | < 1000 | > 6.00 | – | –
12 | CN(C)CC(Oc1ccc(C(F)(F)F)cc1)C1CCCN(CC2(c3ccc(Cl)cc3)CCC2)C1 (racemic) [compound 175] | > 1000 | < 1000 | > 6.00 | – | –
13 | Clc1ccc(C2(CN3CCCC(COc4ccccc4)C3)CCC2)cc1 (single isomer, unassigned) [compound 5] | – | < 1000 | – | – | –
14 | Clc1ccc(C2(CN3CCCC(COc4ccccc4)C3)CCC2)cc1 (single isomer, unassigned) [compound 6] | – | – | – | – | > 6.00
15 | FC(F)(F)c1ccc(OCC2CCCN(CCc3ccc(Cl)cc3)C2)cc1 (centres unmarked) [compound 8, 1-[2-(4-Chloro-phenyl)-ethyl]-3-(4-trifluoromethyl-phenoxymethyl)-piperidine] | – | > 1000 | – | < 6.00 | –
16 | Clc1ccc(C2(CN3CCC[C@@H](COc4ccccc4)C3)CCC2)cc1 [compound 72] | – | < 1000 | – | – | –
